Experimental data taken from ChEMBL document CHEMBL1201862, “PubChem BioAssay data set” (2004).
Active and inactive are the calls of the source.

Key:
[1] = Luminescence Cell-Based Dose Confirmation HTS to Identify Inhibitors of Platelet Dense Granule Release. [Related pubchem assays: 1663 (Primary HTS), 1678 (Summary of Project)]; assay type: functional
[2] = toxicity toward HepG2 liver cells – cell-based, plate reader, cherry-pick, antagonist series, cytotoxicity control, dose response (AID 743416); assay type: functional
[3] = DRD fibroblast viability loss – cell-based, non-viral oncogenic, luminescence, dose response (AID 1934); assay type: functional; details: Homo sapiens
[4] = test system: BJ; assay: BJ-TERT fibroblast viability loss – cell-based, RAS-independent, luminescence, dose response (AID 1933); assay type: functional; details: Homo sapiens
[5] = viability loss in HEK293 cells – cell-based, plate reader, cherry-picked samples, cytotoxicity control, dose response (AID 743446); assay type: functional
[6] = A549 cell cytotoxicity, dose response, cytotoxicity control, plate reader, cherry-pick, antagonist series (AID 743412); assay type: functional, cell-based
[7] = biological target: T1, Protein skinhead-1 (Caenorhabditis elegans, UniProt P34707); assay type: functional
T1 sequence (P34707 whole entry): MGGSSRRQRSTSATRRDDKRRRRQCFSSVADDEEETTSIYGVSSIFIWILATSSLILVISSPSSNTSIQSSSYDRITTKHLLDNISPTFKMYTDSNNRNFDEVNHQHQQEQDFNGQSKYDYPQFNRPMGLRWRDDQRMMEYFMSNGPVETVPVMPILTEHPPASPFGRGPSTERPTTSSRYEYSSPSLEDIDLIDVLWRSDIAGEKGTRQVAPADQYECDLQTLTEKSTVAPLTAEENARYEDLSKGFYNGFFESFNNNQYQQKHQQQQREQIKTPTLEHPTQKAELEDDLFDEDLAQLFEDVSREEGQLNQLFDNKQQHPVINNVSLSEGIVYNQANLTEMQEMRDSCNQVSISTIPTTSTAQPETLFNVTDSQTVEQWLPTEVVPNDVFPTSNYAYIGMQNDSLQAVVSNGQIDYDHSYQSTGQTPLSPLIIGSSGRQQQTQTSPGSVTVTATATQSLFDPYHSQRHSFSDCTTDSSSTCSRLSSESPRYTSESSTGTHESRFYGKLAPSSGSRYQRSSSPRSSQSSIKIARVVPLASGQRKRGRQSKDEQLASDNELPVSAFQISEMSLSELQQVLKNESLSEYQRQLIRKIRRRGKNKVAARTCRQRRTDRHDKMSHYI

[8] = blockers of bursicon-stimulated LGR2 cAMP reporter – cell-based, HEK293, CRE-luciferase reporter, cherry pick, set 2, dose response (AID 743343); assay type: functional;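 further: transfected cells were stimulated with diluted bursicon conditioned medium after compound addition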
[9] = test system: BJ; assay: cells; assay type: functional, cell-based; details: Homo sapiens
[10] = biological target: Luciferin 4-monooxygenase (Photinus pyralis, UniProt P08659); assay: inhibition of purified Photinus pyralis luciferase – biochemical, luminescence, dose response (AID 1891)
[11] = blockade of melanocortin 4 receptor signaling – cell-based, plate reader, cherry pick, counter-screen for LGR2 antagonist project, dose response (AID 743444); assay type: functional;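 further: transfected HEK 293 cells stimulated with alpha-MSH peptide; potency of inhibitors of the alpha-MSH evoked signal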
[12] = test system: BJ; assay: BJ-TERT-LT-ST fibroblast viability loss – cell-based, RAS-independent, luminescence, dose response (AID 1935); assay type: functional; details: Homo sapiens;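 further: BJ fibroblasts immortalized with TERT plus LT and ST oncogenes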
[13] = biological target: Peroxisome proliferator-activated receptor gamma/Nuclear receptor coactivator 1 (Homo sapiens, UniProt P37231); assay type: functional;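 further: agonist potency as compounds enhance coactivator SRC-1 recruitment to PPARgamma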
[14] = biological target: Peroxisome proliferator-activated receptor gamma/Nuclear receptor coactivator 3 (Homo sapiens, UniProt P37231); assay type: functional;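 further: agonist potency for raising coactivator recruitment to the receptor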
[15] = biological target: Peroxisome proliferator-activated receptor gamma/Nuclear receptor coactivator 2 (Homo sapiens, UniProt P37231); assay type: functional;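 further: agonist potency for raising coactivator recruitment to the receptor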
[16] = biological target: T2, Cytochrome P450 3A4 (Homo sapiens, UniProt P08684); details: Potency
[17] = biological target: G-protein coupled receptor 55 (Homo sapiens, UniProt Q9Y2T6); assay: selective activators of receptor GPR55 – imaging, U2OS cells, beta-arrestin-GFP redistribution, primary screen (AID 1961); assay type: functional
[18] = biological target: Cytochrome P450 2D6 (Homo sapiens, UniProt P10635);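 further: CYP2D6 member of a cytochrome P450 panel assay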
[19] = biological target: T2, Cytochrome P450 3A4
[20] = biological target: T3, Protein Tat (Human immunodeficiency virus type 1 group M subtype B (isolate HXB2)(HIV-1), UniProt P04608); assay type: functional;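 further: tat binding to TAR RNA read out by fluorescence polarization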
T3 sequence (P04608 whole entry): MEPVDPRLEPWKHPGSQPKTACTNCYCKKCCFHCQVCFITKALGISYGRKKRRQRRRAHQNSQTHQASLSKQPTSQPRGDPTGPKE

[21] = Luminescence Cell-Based Dose Response to Identify Activators of 5'UTR Stem-Loop Driven Prion Protein mRNA Translation in H4-C Neuroglioblastoma Cells. [Related pubchem assays: 1829 (Project Summary), 1814 (Primary HTS)]; assay type: functional
[22] = Luminescence Cell-Based Dose Response to Identify Activators of Luciferase Translation or Activity in H4-C Neuroglioblastoma Cells. [Related pubchem assays: 1829 (Project Summary), 1814 (Primary HTS)]; assay type: functional
[23] = Luminescence Cell-Based Dose Confirmation to Identify Activators of 5'UTR Stem-Loop Driven Alpha-Synuclein mRNA Translation in H4 Neuroglioblastoma Cells. [Related pubchem assays: 1829 (Project Summary), 1814 (Primary HTS)]; assay type: functional
[24] = Luminescence Cell-Based Dose Response HTS to Identify Activators of Luciferase Translation or Activity in H4 […] Cells. [Related pubchem assays: 1829 (Project Summary), 1814 (Primary HTS)]; assay type: functional
[25] = test system: H4; assay: Luminescence Cell-Based Dose Response HTS to Identify Activators of 5'UTR Stem-Loop Driven Prion Protein mRNA Translation in H4 Neuroglioblastoma Cells. [Related pubchem assays: 1829 (Project Summary), 1814 (Primary HTS)]; assay type: functional; details: Homo sapiens
[26] = Luminescence Cell-Based Dose Confirmation HTS to Identify Activators of 5'UTR Stem-Loop Driven Alpha-Synuclein mRNA Translation in H4 Neuroglioblastoma Cells. [Related pubchem assays: 1829 (Project Summary), 1814 (Primary HTS)]; assay type: functional
[27] = biological target: T4, Leucine aminopeptidase (Plasmodium falciparum 3D7, UniProt Q8IL11); assay: P. falciparum M17LAP inhibitors, primary screen, biochemical, fluorogenic H-Leu-NHMec substrate, 1536-well (AID 1619); assay type: functional
T4 sequence (Q8IL11 whole entry): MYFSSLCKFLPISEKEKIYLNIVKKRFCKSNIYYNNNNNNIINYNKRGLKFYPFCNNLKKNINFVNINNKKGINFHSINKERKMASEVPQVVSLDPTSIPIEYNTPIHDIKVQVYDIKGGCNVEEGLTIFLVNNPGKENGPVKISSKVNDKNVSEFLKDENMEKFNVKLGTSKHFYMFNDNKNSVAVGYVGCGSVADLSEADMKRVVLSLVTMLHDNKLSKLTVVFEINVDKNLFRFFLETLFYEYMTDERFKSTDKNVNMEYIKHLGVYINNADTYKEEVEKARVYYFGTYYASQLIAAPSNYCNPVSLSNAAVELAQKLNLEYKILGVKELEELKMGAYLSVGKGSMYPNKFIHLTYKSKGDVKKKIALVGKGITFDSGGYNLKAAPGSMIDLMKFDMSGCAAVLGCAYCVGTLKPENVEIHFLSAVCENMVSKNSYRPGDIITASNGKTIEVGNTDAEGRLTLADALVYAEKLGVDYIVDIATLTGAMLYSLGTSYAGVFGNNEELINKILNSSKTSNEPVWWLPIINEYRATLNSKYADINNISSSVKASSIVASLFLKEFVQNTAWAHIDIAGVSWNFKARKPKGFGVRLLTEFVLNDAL

T2 sequence (P08684 whole entry): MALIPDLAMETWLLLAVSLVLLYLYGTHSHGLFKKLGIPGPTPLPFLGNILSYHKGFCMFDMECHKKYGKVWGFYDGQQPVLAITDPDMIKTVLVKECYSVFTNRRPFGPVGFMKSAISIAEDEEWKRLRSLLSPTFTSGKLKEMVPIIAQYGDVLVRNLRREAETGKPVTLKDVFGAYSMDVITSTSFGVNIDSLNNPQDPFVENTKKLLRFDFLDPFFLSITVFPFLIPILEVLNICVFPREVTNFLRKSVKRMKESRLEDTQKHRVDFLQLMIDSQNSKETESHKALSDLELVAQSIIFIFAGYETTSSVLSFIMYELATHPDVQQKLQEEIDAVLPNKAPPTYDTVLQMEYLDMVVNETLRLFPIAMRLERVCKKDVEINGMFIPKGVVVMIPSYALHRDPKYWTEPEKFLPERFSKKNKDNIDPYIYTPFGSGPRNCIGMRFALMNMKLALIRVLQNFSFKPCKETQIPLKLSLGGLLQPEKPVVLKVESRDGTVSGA
Chain of G-protein coupled receptor 55 (Q9Y2T6 whole entry): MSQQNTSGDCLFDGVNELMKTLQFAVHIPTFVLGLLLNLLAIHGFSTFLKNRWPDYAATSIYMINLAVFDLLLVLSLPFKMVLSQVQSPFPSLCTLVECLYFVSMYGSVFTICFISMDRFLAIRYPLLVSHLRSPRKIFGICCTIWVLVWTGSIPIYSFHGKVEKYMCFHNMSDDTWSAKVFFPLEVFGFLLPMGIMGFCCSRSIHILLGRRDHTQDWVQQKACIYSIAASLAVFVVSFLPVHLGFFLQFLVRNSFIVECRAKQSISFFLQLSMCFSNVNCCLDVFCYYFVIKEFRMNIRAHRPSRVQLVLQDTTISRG
Chain of Peroxisome proliferator-activated receptor gamma/Nuclear receptor coactivator 3 (P37231 whole entry): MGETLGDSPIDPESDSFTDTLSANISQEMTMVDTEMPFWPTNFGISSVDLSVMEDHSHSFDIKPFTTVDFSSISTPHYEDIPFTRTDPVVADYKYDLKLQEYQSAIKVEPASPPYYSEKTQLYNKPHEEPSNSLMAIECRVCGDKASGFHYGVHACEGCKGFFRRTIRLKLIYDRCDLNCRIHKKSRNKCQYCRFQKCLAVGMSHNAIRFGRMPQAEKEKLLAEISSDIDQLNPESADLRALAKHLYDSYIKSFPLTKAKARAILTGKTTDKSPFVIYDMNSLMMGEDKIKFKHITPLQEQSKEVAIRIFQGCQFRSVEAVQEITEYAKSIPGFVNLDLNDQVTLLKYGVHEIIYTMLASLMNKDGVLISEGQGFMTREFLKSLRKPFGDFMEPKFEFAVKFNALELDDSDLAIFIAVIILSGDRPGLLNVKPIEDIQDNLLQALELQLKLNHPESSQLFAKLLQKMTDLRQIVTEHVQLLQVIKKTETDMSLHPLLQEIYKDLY
Chain of Peroxisome proliferator-activated receptor gamma/Nuclear receptor coactivator 3 (Q9Y6Q9 whole entry, further chain): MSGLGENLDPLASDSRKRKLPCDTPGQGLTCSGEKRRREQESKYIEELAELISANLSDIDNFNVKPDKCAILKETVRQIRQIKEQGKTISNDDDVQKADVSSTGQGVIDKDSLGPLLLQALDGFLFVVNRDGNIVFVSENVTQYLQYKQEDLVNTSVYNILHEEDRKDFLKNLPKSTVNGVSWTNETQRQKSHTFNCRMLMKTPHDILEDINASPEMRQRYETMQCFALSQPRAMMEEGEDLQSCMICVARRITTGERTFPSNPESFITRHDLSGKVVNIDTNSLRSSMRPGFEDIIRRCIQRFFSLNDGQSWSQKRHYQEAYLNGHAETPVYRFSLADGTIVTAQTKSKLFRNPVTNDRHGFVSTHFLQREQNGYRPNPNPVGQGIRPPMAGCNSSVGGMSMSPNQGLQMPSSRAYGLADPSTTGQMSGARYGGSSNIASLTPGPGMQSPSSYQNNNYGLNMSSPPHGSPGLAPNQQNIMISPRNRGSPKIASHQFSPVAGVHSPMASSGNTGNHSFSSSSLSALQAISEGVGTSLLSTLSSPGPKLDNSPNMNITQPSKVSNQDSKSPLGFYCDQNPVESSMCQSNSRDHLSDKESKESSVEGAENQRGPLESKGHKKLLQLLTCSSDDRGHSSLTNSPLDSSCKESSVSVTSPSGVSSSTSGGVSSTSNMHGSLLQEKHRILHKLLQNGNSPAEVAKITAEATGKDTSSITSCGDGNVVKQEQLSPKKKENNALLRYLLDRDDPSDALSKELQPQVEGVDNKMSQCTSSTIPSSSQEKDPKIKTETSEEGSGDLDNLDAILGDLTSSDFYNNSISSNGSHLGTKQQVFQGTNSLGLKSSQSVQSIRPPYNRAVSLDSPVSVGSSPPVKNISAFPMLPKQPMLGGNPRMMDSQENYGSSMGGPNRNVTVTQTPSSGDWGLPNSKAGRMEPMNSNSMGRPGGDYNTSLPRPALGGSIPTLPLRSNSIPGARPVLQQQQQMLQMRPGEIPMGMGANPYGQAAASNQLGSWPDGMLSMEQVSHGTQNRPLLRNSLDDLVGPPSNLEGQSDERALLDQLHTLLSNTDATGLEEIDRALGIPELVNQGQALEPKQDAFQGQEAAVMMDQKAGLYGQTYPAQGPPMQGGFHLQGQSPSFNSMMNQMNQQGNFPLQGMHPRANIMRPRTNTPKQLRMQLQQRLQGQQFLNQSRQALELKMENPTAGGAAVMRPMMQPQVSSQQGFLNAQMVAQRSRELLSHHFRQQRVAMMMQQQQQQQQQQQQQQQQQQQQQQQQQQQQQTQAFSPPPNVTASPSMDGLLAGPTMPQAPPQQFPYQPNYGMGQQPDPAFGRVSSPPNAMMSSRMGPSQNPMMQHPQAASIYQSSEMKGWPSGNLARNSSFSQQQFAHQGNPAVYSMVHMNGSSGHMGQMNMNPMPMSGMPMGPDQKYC
Chain of Peroxisome proliferator-activated receptor gamma/Nuclear receptor coactivator 1 (P37231 whole entry): as the sequence (P37231 whole entry) above
Chain of Peroxisome proliferator-activated receptor gamma/Nuclear receptor coactivator 1 (Q15788 whole entry, further chain): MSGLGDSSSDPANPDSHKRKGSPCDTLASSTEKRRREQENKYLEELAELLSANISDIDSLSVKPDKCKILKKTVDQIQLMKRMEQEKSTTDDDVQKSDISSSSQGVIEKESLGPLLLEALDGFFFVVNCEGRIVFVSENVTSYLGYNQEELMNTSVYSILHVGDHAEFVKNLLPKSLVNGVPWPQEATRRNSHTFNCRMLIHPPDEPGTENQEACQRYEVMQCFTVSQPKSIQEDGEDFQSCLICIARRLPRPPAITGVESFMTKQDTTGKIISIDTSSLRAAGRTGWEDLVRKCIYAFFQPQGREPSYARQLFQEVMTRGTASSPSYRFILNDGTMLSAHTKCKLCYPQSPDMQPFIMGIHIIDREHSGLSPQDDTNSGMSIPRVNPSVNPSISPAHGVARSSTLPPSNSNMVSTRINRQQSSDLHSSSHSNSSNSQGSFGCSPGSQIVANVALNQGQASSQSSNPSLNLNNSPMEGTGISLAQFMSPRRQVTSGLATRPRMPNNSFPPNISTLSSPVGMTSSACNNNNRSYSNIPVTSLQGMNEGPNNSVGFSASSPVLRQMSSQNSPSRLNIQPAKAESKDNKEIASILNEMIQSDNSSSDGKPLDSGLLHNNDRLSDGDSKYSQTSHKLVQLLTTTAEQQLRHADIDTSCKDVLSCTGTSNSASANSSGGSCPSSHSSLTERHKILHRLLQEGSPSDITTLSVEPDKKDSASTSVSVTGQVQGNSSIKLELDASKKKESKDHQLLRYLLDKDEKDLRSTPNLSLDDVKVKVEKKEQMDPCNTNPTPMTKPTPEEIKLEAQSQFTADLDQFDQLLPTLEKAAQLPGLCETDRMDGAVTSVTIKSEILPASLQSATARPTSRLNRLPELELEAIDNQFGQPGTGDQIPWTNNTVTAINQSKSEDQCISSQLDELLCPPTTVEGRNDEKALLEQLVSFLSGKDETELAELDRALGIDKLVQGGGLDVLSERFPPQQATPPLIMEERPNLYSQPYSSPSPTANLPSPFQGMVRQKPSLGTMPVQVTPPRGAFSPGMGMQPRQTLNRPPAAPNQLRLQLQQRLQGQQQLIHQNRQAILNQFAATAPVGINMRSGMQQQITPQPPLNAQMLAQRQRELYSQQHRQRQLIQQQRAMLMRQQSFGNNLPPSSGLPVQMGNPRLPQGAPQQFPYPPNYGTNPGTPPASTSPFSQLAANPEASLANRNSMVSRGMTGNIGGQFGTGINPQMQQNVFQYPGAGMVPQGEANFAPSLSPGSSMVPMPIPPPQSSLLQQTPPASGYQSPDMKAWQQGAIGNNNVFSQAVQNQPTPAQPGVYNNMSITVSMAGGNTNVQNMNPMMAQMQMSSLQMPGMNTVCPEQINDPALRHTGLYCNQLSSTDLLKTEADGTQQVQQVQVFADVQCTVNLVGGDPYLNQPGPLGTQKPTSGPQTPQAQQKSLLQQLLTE

For CCCSc1ccc2nc(-c3ccccc3)cn2c1, the EC50 [1] was 2.14 µM (active), the AC50 [2] was 20.7 µM (active) and the EC50 [3] was 20.9 µM (active). The EC50 [4] was 22.8 µM (active), the AC50 [5] was 39.5 µM (active) and the AC50 [6] was 39.3 µM (active). The IC50 [7] was > 100 µM (inactive), the AC50 [8] was 0.951 µM (active) and the EC50 [9] was 19.6 µM (active). The EC50 [10] was 0.709 µM (active), the AC50 [11] was 1.2 µM (active) and the EC50 [12] was > 150 µM (not active).

For CC1(C)Cc2c(C#N)c(SCC(=O)c3ccccc3)nc(N3CCOCC3)c2CO1, the EC50 [13] was > 79.4 µM (not active), the EC50 [14] was > 79.4 µM (not active) and the EC50 [15] was 79.4 µM (not active).

For COc1ccc(C)cc1N, the AC50 [16] was 31.6 µM (inconclusive).

For CCOC(=O)C(=Cc1ccc(-c2ccsc2C(=O)OC)o1)C(=O)OCC, the EC50 [17] was 18.4 µM (inactive), the AC50 [18] was 39.8 µM (inconclusive) and the AC50 [19] was 39.8 µM (inconclusive).

In the case of CC(/C=N/NC(=O)c1nnn(-c2nonc2N)c1CN1CCCCC1)=C\c1ccccc1, the EC50 [17] is reported as < 0.5 µM (active).

In the case of CCN1CCN(C(=O)CN(C)S(=O)(=O)c2ccc(OC)c(C)c2)CC1, the IC50 [20] is reported as > 100 µM (active).

For O=C(NC1CCCCCCC1)NC1CCCCC1, the EC50 [21] was 1.84 µM (active), the EC50 [22] was 1.12 µM (active) and the EC50 [23] was > 12 µM (not active). For the same molecule, the EC50 [24] was 5.81 µM (active) and the EC50 [25] was > 120 µM (not active).

For O=C(CSc1nnnn1C1CCCC1)N1CCCCC1, the EC50 [21] was 0.537 µM (active), the EC50 [22] was 0.57 µM (active) and the EC50 [26] was 0.118 µM (active). For the same molecule, the EC50 [23] was 0.524 µM (active), the EC50 [24] was < 0.1 µM (active) and the EC50 [25] was > 120 µM (not active).

In the case of FC(F)(F)c1ccc(CN2C[C@@H]3C(c4ccc(C(F)(F)F)cc4)C4(c5ccccc5)CC3(C4)[C@H]2c2ccccc2)cc1 (some centres undefined), the AC50 [16] is reported as 0.316 µM (inconclusive).

With O=C(CN1C(=O)c2ccccc2S1(=O)=O)NCCSc1ccccc1 the IC50 [27] was 5.54 µM (active).
